{
  "source": "paper PMC9506414",
  "about": "“Novel 2,6,9-Trisubstituted Purines as Potent CDK Inhibitors Alleviating Trastuzumab-Resistance of HER2-Positive Breast Cancers” (Pharmaceuticals, 2022)",
  "assay_in_all_cases": "Kinome-wide inhibition profiling",
  "format_in_all_cases": "biochemical",
  "key": {"[1]": {"target": "T1, GSK3a (Homo sapiens, UniProt P49840)", "T1 construct": "purchased Reaction Biology Corp", "experimental": "(§1) In vitro CDK12/cyclinK assays for all compounds and in vitro kinome-wide inhibition profiling of 30d at 10 μM were performed by a CRO company (Reaction Biology Corp., San Diego, CA, USA)."}, "[2]": {"target": "T2, PKN1 (Homo sapiens, UniProt Q16512)", "T2 construct": "purchased Reaction Biology Corp", "experimental": "as §1"}, "[3]": {"target": "T3, FGFR1 (Homo sapiens, UniProt P11362)", "T3 construct": "purchased Reaction Biology Corp", "experimental": "as §1"}, "[4]": {"target": "T4, PDPK1 (Homo sapiens, UniProt O15530)", "T4 construct": "purchased Reaction Biology Corp", "experimental": "as §1"}, "[5]": {"target": "T5, FLT4 (Homo sapiens, UniProt P35916)", "T5 construct": "purchased Reaction Biology Corp", "experimental": "as §1"}, "[6]": {"target": "T6, BMPR2 (Homo sapiens, UniProt Q13873)", "T6 construct": "purchased Reaction Biology Corp", "experimental": "as §1"}, "[7]": {"target": "T7, PIM1 (Homo sapiens, UniProt P11309)", "T7 construct": "purchased Reaction Biology Corp", "experimental": "as §1"}, "[8]": {"target": "T8, VRK2 (Homo sapiens, UniProt Q86Y07)", "T8 construct": "purchased Reaction Biology Corp", "experimental": "as §1"}, "[9]": {"target": "T9, PKAC-beta (Homo sapiens, UniProt P22694)", "T9 construct": "purchased Reaction Biology Corp", "experimental": "as §1"}, "[10]": {"target": "T10, SIK (Homo sapiens, UniProt P57059)", "T10 construct": "purchased Reaction Biology Corp", "experimental": "as §1"}, "[11]": {"target": "T11, ERK7 (Homo sapiens, UniProt Q8TD08)", "T11 construct": "purchased Reaction Biology Corp", "experimental": "as §1"}, "[12]": {"target": "T12, ASK1 (Homo sapiens, UniProt Q99683)", "T12 construct": "purchased Reaction Biology Corp", "experimental": "as §1"}, "[13]": {"target": "T13, CAMK1b (Homo sapiens, UniProt Q6P2M8)", "T13 construct": "purchased Reaction Biology Corp", "experimental": "as §1"}, "[14]": {"target": "T14, BTK (Homo sapiens, UniProt Q06187)", "T14 construct": "purchased Reaction Biology Corp", "experimental": "as §1"}, "[15]": {"target": "T15, CAMK1g (Homo sapiens, UniProt Q96NX5)", "T15 construct": "purchased Reaction Biology Corp", "experimental": "as §1"}, "[16]": {"target": "T16, QSK (Homo sapiens, UniProt Q9Y2K2)", "T16 construct": "purchased Reaction Biology Corp", "experimental": "as §1"}, "[17]": {"target": "T17, EPHA8 (Homo sapiens, UniProt P29322)", "T17 construct": "purchased Reaction Biology Corp", "T17 sequence (P29322 28-1005)": "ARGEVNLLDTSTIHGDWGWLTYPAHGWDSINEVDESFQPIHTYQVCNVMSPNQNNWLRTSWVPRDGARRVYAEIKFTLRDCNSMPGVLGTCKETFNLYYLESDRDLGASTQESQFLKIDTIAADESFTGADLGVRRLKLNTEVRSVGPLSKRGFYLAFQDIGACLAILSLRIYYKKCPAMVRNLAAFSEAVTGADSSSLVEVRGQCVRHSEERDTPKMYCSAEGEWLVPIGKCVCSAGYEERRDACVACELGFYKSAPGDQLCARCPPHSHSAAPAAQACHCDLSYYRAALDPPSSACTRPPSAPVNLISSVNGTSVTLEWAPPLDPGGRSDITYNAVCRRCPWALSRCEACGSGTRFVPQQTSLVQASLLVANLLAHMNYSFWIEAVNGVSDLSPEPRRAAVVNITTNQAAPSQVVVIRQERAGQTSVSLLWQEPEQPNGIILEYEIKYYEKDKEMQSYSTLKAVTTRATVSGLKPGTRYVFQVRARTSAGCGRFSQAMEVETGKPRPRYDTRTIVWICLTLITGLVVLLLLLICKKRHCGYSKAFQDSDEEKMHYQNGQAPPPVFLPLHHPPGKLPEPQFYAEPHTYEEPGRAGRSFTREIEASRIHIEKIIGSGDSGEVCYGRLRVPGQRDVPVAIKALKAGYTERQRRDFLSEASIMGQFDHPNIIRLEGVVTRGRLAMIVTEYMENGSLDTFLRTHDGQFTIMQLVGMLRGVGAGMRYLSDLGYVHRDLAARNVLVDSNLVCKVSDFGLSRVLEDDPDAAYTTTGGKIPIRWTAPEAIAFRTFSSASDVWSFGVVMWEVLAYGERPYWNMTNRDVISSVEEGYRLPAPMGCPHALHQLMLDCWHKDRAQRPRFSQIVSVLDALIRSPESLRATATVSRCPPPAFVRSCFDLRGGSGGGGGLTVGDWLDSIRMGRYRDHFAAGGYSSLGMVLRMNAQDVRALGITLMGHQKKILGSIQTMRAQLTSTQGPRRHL", "experimental": "as §1"}, "[18]": {"target": "T18, HIPK4 (Homo sapiens, UniProt Q8NE63)", "T18 construct": "purchased Reaction Biology Corp", "experimental": "as §1"}, "[19]": {"target": "T19, FMS (Homo sapiens, UniProt P07333)", "T19 construct": "purchased Reaction Biology Corp", "experimental": "as §1"}, "[20]": {"target": "T20, DMPK (Homo sapiens, UniProt Q09013)", "T20 construct": "purchased Reaction Biology Corp", "experimental": "as §1"}, "[21]": {"target": "T21, NEK6 (Homo sapiens, UniProt Q9HC98)", "T21 construct": "purchased Reaction Biology Corp", "experimental": "as §1"}, "[22]": {"target": "T22, CSNK1E (Homo sapiens, UniProt P49674)", "T22 construct": "purchased Reaction Biology Corp", "experimental": "as §1"}, "[23]": {"target": "T23, MAK (Homo sapiens, UniProt P20794)", "T23 construct": "purchased Reaction Biology Corp", "T23 sequence (P20794 whole entry)": "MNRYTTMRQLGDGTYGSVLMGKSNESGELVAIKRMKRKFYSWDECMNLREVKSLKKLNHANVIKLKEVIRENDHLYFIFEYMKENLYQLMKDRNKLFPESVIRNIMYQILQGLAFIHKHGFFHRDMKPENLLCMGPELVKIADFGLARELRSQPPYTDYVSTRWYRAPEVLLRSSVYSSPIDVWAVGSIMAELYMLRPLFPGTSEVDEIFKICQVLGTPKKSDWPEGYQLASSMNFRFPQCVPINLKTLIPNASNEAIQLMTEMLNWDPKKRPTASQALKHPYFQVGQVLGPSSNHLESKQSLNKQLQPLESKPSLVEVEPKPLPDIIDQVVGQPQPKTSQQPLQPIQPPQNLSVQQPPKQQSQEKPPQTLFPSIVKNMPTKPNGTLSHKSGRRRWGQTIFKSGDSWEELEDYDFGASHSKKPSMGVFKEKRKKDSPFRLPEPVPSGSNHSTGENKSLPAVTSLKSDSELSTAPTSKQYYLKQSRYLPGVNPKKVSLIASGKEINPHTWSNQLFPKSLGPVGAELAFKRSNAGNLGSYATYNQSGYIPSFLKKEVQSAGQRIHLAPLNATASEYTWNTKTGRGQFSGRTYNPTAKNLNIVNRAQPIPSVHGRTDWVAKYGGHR", "experimental": "as §1"}, "[24]": {"target": "T24, CHEK1 (Homo sapiens, UniProt O14757)", "T24 construct": "purchased Reaction Biology Corp", "experimental": "as §1"}, "[25]": {"target": "T25, BRK (Homo sapiens, UniProt Q13882)", "T25 construct": "purchased Reaction Biology Corp", "experimental": "as §1"}, "[26]": {"target": "T26, NDR1 (Homo sapiens, UniProt Q15208)", "T26 construct": "purchased Reaction Biology Corp", "experimental": "as §1"}, "[27]": {"target": "T27, LYN B (Homo sapiens, UniProt P07948)", "T27 construct": "purchased Reaction Biology Corp", "experimental": "as §1"}, "[28]": {"target": "T28, PYK2 (Homo sapiens, UniProt Q14289)", "T28 construct": "purchased Reaction Biology Corp", "experimental": "as §1"}, "[29]": {"target": "T29, TYK2 (Homo sapiens, UniProt P29597)", "T29 construct": "purchased Reaction Biology Corp", "experimental": "as §1"}, "[30]": {"target": "T30, ERK2 (Homo sapiens, UniProt P28482)", "T30 construct": "purchased Reaction Biology Corp", "experimental": "as §1"}, "[31]": {"target": "T31, CDK9/cyclinT1 (Homo sapiens, UniProt P50750)", "T31 construct": "purchased Reaction Biology Corp", "T31 sequence (P50750 whole entry)": "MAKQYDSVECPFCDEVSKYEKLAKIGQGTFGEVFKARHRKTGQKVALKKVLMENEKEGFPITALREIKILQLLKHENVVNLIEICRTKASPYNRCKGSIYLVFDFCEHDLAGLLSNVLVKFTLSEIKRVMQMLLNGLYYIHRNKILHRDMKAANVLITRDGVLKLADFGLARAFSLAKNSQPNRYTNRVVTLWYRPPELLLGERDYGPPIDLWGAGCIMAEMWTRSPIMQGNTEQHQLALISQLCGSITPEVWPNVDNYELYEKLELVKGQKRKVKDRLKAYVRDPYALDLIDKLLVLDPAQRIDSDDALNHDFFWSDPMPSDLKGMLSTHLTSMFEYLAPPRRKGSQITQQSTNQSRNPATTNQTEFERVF", "T31 sequence (O60563 whole entry partner)": "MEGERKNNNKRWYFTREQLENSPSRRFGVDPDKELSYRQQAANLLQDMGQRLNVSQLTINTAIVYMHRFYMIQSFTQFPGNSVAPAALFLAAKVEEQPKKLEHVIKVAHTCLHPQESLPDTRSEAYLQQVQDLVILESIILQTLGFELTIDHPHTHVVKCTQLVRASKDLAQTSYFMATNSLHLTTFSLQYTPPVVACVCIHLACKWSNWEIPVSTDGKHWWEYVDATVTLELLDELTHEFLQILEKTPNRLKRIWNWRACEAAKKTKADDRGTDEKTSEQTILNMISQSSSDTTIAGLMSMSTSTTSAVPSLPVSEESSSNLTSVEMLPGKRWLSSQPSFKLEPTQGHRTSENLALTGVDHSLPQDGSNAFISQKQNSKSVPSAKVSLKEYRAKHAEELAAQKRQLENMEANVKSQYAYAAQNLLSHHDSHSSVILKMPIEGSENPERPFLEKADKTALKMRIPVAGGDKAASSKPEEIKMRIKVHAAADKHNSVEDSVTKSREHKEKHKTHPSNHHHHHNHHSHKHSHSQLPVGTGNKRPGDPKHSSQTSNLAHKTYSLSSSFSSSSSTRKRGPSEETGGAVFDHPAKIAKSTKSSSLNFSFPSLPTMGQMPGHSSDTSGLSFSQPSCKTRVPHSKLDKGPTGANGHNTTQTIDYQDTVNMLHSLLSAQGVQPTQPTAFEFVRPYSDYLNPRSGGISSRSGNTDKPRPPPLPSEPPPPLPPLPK", "experimental": "as §1"}, "[32]": {"target": "T32, MERTK (Homo sapiens, UniProt Q12866)", "T32 construct": "purchased Reaction Biology Corp", "experimental": "as §1"}, "[33]": {"target": "T33, MELK (Homo sapiens, UniProt Q14680)", "T33 construct": "purchased Reaction Biology Corp", "T33 sequence (Q14680 whole entry)": "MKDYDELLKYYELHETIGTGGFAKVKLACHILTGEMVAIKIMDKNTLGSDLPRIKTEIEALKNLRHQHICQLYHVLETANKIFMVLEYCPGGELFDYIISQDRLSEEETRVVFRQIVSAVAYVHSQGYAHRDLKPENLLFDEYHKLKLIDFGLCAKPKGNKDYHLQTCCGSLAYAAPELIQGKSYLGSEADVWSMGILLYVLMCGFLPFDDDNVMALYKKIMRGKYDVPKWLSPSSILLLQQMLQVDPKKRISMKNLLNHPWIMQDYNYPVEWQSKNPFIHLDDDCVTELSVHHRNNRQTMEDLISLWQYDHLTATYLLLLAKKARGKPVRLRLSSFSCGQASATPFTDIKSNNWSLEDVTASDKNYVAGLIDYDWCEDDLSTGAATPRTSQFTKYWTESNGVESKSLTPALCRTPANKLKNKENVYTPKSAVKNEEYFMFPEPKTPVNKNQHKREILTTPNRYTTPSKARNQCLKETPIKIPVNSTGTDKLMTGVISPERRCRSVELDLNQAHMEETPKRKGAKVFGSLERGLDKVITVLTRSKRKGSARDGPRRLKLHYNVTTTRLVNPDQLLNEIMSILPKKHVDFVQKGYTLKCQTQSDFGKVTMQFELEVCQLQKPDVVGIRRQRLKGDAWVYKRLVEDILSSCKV", "experimental": "as §1"}, "[34]": {"target": "T34, DYRK1B (Homo sapiens, UniProt Q9Y463)", "T34 construct": "purchased Reaction Biology Corp", "T34 sequence (Q9Y463 whole entry)": "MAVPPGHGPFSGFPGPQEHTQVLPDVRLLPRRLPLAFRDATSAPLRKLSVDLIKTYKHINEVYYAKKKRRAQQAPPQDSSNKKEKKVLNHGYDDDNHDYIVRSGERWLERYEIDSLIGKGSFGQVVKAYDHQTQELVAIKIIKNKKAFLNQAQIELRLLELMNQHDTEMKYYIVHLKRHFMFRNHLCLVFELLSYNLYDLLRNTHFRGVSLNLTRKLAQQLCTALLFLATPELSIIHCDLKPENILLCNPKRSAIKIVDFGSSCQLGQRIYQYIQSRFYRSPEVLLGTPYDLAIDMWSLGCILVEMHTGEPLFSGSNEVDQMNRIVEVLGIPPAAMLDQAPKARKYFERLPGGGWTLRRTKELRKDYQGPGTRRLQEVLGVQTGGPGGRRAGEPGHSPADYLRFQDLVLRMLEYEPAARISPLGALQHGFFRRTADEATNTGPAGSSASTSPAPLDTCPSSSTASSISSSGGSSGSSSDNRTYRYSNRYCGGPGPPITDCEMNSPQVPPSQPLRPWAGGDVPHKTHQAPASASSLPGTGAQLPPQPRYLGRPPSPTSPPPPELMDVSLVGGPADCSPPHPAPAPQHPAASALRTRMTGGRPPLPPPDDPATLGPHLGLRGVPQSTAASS", "experimental": "as §1"}, "[35]": {"target": "T35, AurkB (Homo sapiens, UniProt Q96GD4)", "T35 construct": "purchased Reaction Biology Corp", "experimental": "as §1"}, "[36]": {"target": "T36, DDR1 (Homo sapiens, UniProt Q08345)", "T36 construct": "purchased Reaction Biology Corp", "experimental": "as §1"}, "[37]": {"target": "T37, CAMK2a (Homo sapiens, UniProt Q9UQM7)", "T37 construct": "purchased Reaction Biology Corp", "experimental": "as §1"}, "[38]": {"target": "T38, CDK6/cyclinD1 (Homo sapiens, UniProt Q00534)", "T38 construct": "purchased Reaction Biology Corp", "experimental": "as §1"}, "[39]": {"target": "T39, EPHA5 (Homo sapiens, UniProt P54756)", "T39 construct": "purchased Reaction Biology Corp", "experimental": "as §1"}, "[40]": {"target": "T40, SGK2 (Homo sapiens, UniProt Q9HBY8)", "T40 construct": "purchased Reaction Biology Corp", "experimental": "as §1"}, "[41]": {"target": "T41, NEK1 (Homo sapiens, UniProt Q96PY6)", "T41 construct": "purchased Reaction Biology Corp", "experimental": "as §1"}, "[42]": {"target": "T42, EPHB2 (Homo sapiens, UniProt P29323)", "T42 construct": "purchased Reaction Biology Corp", "T42 sequence (P29323 19-1055)": "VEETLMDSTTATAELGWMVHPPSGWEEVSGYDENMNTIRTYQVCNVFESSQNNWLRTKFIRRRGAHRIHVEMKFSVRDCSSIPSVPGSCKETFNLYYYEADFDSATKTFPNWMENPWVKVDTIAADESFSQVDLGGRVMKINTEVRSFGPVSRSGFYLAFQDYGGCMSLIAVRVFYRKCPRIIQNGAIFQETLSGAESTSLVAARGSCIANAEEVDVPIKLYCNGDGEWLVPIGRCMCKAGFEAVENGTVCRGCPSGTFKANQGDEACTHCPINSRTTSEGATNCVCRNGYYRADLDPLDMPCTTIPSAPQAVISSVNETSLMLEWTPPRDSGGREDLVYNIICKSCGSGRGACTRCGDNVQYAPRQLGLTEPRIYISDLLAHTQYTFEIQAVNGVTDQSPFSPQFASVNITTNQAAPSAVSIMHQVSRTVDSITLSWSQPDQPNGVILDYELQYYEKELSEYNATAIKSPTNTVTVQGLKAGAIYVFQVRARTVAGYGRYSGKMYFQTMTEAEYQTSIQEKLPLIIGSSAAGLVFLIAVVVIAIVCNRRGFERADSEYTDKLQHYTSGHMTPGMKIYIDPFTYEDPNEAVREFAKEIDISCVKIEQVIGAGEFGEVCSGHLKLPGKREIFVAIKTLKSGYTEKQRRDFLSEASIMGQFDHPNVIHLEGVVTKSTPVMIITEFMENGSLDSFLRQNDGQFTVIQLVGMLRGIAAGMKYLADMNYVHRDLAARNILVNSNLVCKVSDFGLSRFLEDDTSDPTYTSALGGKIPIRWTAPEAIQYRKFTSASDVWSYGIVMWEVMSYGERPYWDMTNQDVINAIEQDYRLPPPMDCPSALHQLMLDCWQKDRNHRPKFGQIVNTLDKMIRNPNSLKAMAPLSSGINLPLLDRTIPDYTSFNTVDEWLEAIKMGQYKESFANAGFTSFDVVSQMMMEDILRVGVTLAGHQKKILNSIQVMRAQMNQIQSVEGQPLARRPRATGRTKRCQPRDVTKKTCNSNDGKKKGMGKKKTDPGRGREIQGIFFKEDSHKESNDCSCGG", "experimental": "as §1"}, "[43]": {"target": "T43, PRKG1 (Homo sapiens, UniProt Q13976)", "T43 construct": "purchased Reaction Biology Corp", "experimental": "as §1"}},
  "data": [
    {"compound": "CCn1cnc2c(NCc3ccc(-c4ccccn4)nc3)nc(-c3ccc(N)nc3)nc21", "note": "[Compound 30d, N-([2,2′-Bipyridin]-5-ylmethyl)-2-(6-aminopyridin-3-yl)-9-ethyl-9H-purin-6-amine]", "values": [
      {"measurement": "remaining activity at 10 µM", "setting": "[1]", "result": 10.6, "unit": "%"},
      {"measurement": "remaining activity at 10 µM", "setting": "[2]", "result": 85.4, "unit": "%"},
      {"measurement": "remaining activity at 10 µM", "setting": "[3]", "result": 28.8, "unit": "%"},
      {"measurement": "remaining activity at 10 µM", "setting": "[4]", "result": 105, "unit": "%"},
      {"measurement": "remaining activity at 10 µM", "setting": "[5]", "result": 10, "unit": "%"},
      {"measurement": "remaining activity at 10 µM", "setting": "[6]", "result": 52.4, "unit": "%"},
      {"measurement": "remaining activity at 10 µM", "setting": "[7]", "result": 97.8, "unit": "%"},
      {"measurement": "remaining activity at 10 µM", "setting": "[8]", "result": 96.6, "unit": "%"},
      {"measurement": "remaining activity at 10 µM", "setting": "[9]", "result": 104, "unit": "%"},
      {"measurement": "remaining activity at 10 µM", "setting": "[10]", "result": 56.3, "unit": "%"},
      {"measurement": "remaining activity at 10 µM", "setting": "[11]", "result": 13.5, "unit": "%"},
      {"measurement": "remaining activity at 10 µM", "setting": "[12]", "result": 18.4, "unit": "%"},
      {"measurement": "remaining activity at 10 µM", "setting": "[13]", "result": 66.8, "unit": "%"},
      {"measurement": "remaining activity at 10 µM", "setting": "[14]", "result": 103, "unit": "%"},
      {"measurement": "remaining activity at 10 µM", "setting": "[15]", "result": 54.3, "unit": "%"},
      {"measurement": "remaining activity at 10 µM", "setting": "[16]", "result": 30.2, "unit": "%"},
      {"measurement": "remaining activity at 10 µM", "setting": "[17]", "result": 94, "unit": "%"},
      {"measurement": "remaining activity at 10 µM", "setting": "[18]", "result": 43.9, "unit": "%"},
      {"measurement": "remaining activity at 10 µM", "setting": "[19]", "result": 35.4, "unit": "%"},
      {"measurement": "remaining activity at 10 µM", "setting": "[20]", "result": 90.4, "unit": "%"},
      {"measurement": "remaining activity at 10 µM", "setting": "[21]", "result": 92.1, "unit": "%"},
      {"measurement": "remaining activity at 10 µM", "setting": "[22]", "result": 22.9, "unit": "%"},
      {"measurement": "inhibition at 10 µM", "setting": "[23]", "result": "> 95", "unit": "%"},
      {"measurement": "remaining activity at 10 µM", "setting": "[23]", "result": 3.3, "unit": "%"},
      {"measurement": "remaining activity at 10 µM", "setting": "[24]", "result": 79.5, "unit": "%"},
      {"measurement": "remaining activity at 10 µM", "setting": "[25]", "result": 46.6, "unit": "%"},
      {"measurement": "remaining activity at 10 µM", "setting": "[26]", "result": 28.3, "unit": "%"},
      {"measurement": "remaining activity at 10 µM", "setting": "[27]", "result": 54.4, "unit": "%"},
      {"measurement": "remaining activity at 10 µM", "setting": "[28]", "result": 47.5, "unit": "%"},
      {"measurement": "remaining activity at 10 µM", "setting": "[29]", "result": 90.7, "unit": "%"},
      {"measurement": "remaining activity at 10 µM", "setting": "[30]", "result": 10.6, "unit": "%"},
      {"measurement": "inhibition at 10 µM", "setting": "[31]", "result": "> 95", "unit": "%"},
      {"measurement": "remaining activity at 10 µM", "setting": "[31]", "result": 0.8, "unit": "%"},
      {"measurement": "remaining activity at 10 µM", "setting": "[32]", "result": 71, "unit": "%"},
      {"measurement": "remaining activity at 10 µM", "setting": "[33]", "result": 21.2, "unit": "%"},
      {"measurement": "inhibition at 10 µM", "setting": "[34]", "result": "> 95", "unit": "%"},
      {"measurement": "remaining activity at 10 µM", "setting": "[34]", "result": 3.2, "unit": "%"},
      {"measurement": "remaining activity at 10 µM", "setting": "[35]", "result": 73, "unit": "%"},
      {"measurement": "remaining activity at 10 µM", "setting": "[36]", "result": 50.2, "unit": "%"},
      {"measurement": "remaining activity at 10 µM", "setting": "[37]", "result": 64, "unit": "%"},
      {"measurement": "remaining activity at 10 µM", "setting": "[38]", "result": 24.2, "unit": "%"},
      {"measurement": "remaining activity at 10 µM", "setting": "[39]", "result": 5.9, "unit": "%"},
      {"measurement": "remaining activity at 10 µM", "setting": "[40]", "result": 84.7, "unit": "%"},
      {"measurement": "remaining activity at 10 µM", "setting": "[41]", "result": 92.3, "unit": "%"},
      {"measurement": "inhibition at 10 µM", "setting": "[42]", "result": "> 95", "unit": "%"},
      {"measurement": "remaining activity at 10 µM", "setting": "[42]", "result": 2.5, "unit": "%"},
      {"measurement": "remaining activity at 10 µM", "setting": "[43]", "result": 108, "unit": "%"}
    ]}
  ]
}
